Test results taken from PMC9601927 (Foods, 2022).

System: Caco-2 cell monolayer
Experiment: ANC transmembrane transport across Caco-2 cell monolayer (Transwell, HPLC)
Assay type: in vitro ADME
Description: In this work, we utilized and slightly modified a procedure from Zou et al. to perform ANC transport studies. Firstly, ANC commercial powder was pre-dissolved in ultra-pure water and phosphate-buffered solution (PBS, pH7.4) was used for FA-g-CS dissolving. Then, pre-warmed phosphate-buffered saline (PBS) was used to wash and equilibrate the Transwell. Subsequently, the transport buffer containing ANC was added to the basolateral (1.5 mL) or the apical (0.5 mL) side of the inserts, while the corresponding volume of transport buffer was added to the receiving container. Samples measuring 50 uL were taken after 1, 2, 3, and 4 h incubation, and the same amount of pre-warmed PBS was replenished immediately. The samples were treated with HCl and frozen until HPLC analysis. The ANC-absorption-enhancing studies with FA-g-CS across Caco-2 cells were conducted using a transport buffer containing FA-g-CS+ANC instead of ANC alone.
Transport efficiency (A→B (%)) was calculated according to the following formula: (concentrations of the compound at basolateral side overtime)/(concentrations of the compound at the apical side at zero hours) × 100. The apparent permeability coefficient (Papp) was defined as follows: Papp = (dQ/dt)(1/[AC0]); here, A represents the surface area of the Transwell, C0 represents the compound concentration added in the apical side, and the transport rate of the compound over time is denoted by dQ/dt.

SMILES: OC[C@H]1O[C@@H](Oc2cc3c(O)cc(O)cc3[o+]c2-c2ccc(O)c(O)c2)[C@H](O)[C@@H](O)[C@@H]1O [ANC, Cyanidin-3-glucoside]
- Concentrations of ANC at the Basolateral Side (apical ANC 0.05 ×10^−3 mg/mL, in presence of 0.05 × 10^−3 mg/mL FA-g-CS, 4 h): 0.0005 ± 0.00001 d ×10^−3 mg/mL
- Concentrations of ANC at the Basolateral Side (apical ANC 0.05 ×10^−3 mg/mL, without FA-g-CS co-treatment, 1 h): 0.0001 ± 0.00001 a ×10^−3 mg/mL
- Concentrations of ANC at the Basolateral Side (apical ANC 0.05 ×10^−3 mg/mL, without FA-g-CS co-treatment, 2 h): 0.0003 ± 0.00001 b ×10^−3 mg/mL
- Concentrations of ANC at the Basolateral Side (apical ANC 0.05 ×10^−3 mg/mL, without FA-g-CS co-treatment, 3 h): 0.0004 ± 0.00001 c ×10^−3 mg/mL
- Concentrations of ANC at the Basolateral Side (apical ANC 0.05 ×10^−3 mg/mL, without FA-g-CS co-treatment, 4 h): 0.0004 ± 0.00001 c ×10^−3 mg/mL
- Concentrations of ANC at the Basolateral Side (apical ANC 0.10 ×10^−3 mg/mL, in presence of 0.05 × 10^−3 mg/mL FA-g-CS, 1 h): 0.0010 ± 0.0001 bc ×10^−3 mg/mL
- Concentrations of ANC at the Basolateral Side (apical ANC 0.10 ×10^−3 mg/mL, in presence of 0.05 × 10^−3 mg/mL FA-g-CS, 2 h): 0.0010 ± 0.0002 bc ×10^−3 mg/mL
- Concentrations of ANC at the Basolateral Side (apical ANC 0.10 ×10^−3 mg/mL, in presence of 0.05 × 10^−3 mg/mL FA-g-CS, 3 h): 0.0019 ± 0.0001 d ×10^−3 mg/mL
- Concentrations of ANC at the Basolateral Side (apical ANC 0.10 ×10^−3 mg/mL, in presence of 0.05 × 10^−3 mg/mL FA-g-CS, 4 h): 0.0021 ± 0.0002 d ×10^−3 mg/mL
- Concentrations of ANC at the Basolateral Side (apical ANC 0.10 ×10^−3 mg/mL, without FA-g-CS co-treatment, 1 h): 0.0004 ± 0.00002 a ×10^−3 mg/mL
- Concentrations of ANC at the Basolateral Side (apical ANC 0.10 ×10^−3 mg/mL, without FA-g-CS co-treatment, 2 h): 0.0008 ± 0.00001 b ×10^−3 mg/mL
- Concentrations of ANC at the Basolateral Side (apical ANC 0.10 ×10^−3 mg/mL, without FA-g-CS co-treatment, 3 h): 0.0009 ± 0.00001 b ×10^−3 mg/mL
- Concentrations of ANC at the Basolateral Side (apical ANC 0.10 ×10^−3 mg/mL, without FA-g-CS co-treatment, 4 h): 0.0012 ± 0.00002 c ×10^−3 mg/mL
- Concentrations of ANC at the Basolateral Side (apical ANC 0.15 ×10^−3 mg/mL, in presence of 0.05 × 10^−3 mg/mL FA-g-CS, 1 h): 0.0017 ± 0.0002 c ×10^−3 mg/mL
- Concentrations of ANC at the Basolateral Side (apical ANC 0.15 ×10^−3 mg/mL, in presence of 0.05 × 10^−3 mg/mL FA-g-CS, 2 h): 0.0025 ± 0.0002 d ×10^−3 mg/mL
- Concentrations of ANC at the Basolateral Side (apical ANC 0.15 ×10^−3 mg/mL, in presence of 0.05 × 10^−3 mg/mL FA-g-CS, 3 h): 0.0030 ± 0.0001 e ×10^−3 mg/mL
- Concentrations of ANC at the Basolateral Side (apical ANC 0.15 ×10^−3 mg/mL, in presence of 0.05 × 10^−3 mg/mL FA-g-CS, 4 h): 0.0035 ± 0.0001 f ×10^−3 mg/mL
- Concentrations of ANC at the Basolateral Side (apical ANC 0.15 ×10^−3 mg/mL, without FA-g-CS co-treatment, 1 h): 0.0006 ± 0.00001 a ×10^−3 mg/mL
- Concentrations of ANC at the Basolateral Side (apical ANC 0.15 ×10^−3 mg/mL, without FA-g-CS co-treatment, 2 h): 0.0009 ± 0.00002 b ×10^−3 mg/mL
- Concentrations of ANC at the Basolateral Side (apical ANC 0.15 ×10^−3 mg/mL, without FA-g-CS co-treatment, 3 h): 0.0010 ± 0.0003 b ×10^−3 mg/mL
- Concentrations of ANC at the Basolateral Side (apical ANC 0.15 ×10^−3 mg/mL, without FA-g-CS co-treatment, 4 h): 0.0018 ± 0.00001 c ×10^−3 mg/mL
- Concentrations of ANC at the Basolateral Side (apical ANC 0.20 ×10^−3 mg/mL, in presence of 0.05 × 10^−3 mg/mL FA-g-CS, 1 h): 0.0020 ± 0.0001 c ×10^−3 mg/mL
- Concentrations of ANC at the Basolateral Side (apical ANC 0.20 ×10^−3 mg/mL, in presence of 0.05 × 10^−3 mg/mL FA-g-CS, 2 h): 0.0023 ± 0.0002 d ×10^−3 mg/mL
- Concentrations of ANC at the Basolateral Side (apical ANC 0.20 ×10^−3 mg/mL, in presence of 0.05 × 10^−3 mg/mL FA-g-CS, 3 h): 0.0032 ± 0.0001 e ×10^−3 mg/mL
- Concentrations of ANC at the Basolateral Side (apical ANC 0.20 ×10^−3 mg/mL, in presence of 0.05 × 10^−3 mg/mL FA-g-CS, 4 h): 0.0033 ± 0.0001 e ×10^−3 mg/mL
- Concentrations of ANC at the Basolateral Side (apical ANC 0.20 ×10^−3 mg/mL, without FA-g-CS co-treatment, 1 h): 0.0007 ± 0.00001 a ×10^−3 mg/mL
- Concentrations of ANC at the Basolateral Side (apical ANC 0.20 ×10^−3 mg/mL, without FA-g-CS co-treatment, 2 h): 0.001 ± 0.0002 b ×10^−3 mg/mL
- Concentrations of ANC at the Basolateral Side (apical ANC 0.20 ×10^−3 mg/mL, without FA-g-CS co-treatment, 3 h): 0.0012 ± 0.0001 b ×10^−3 mg/mL
- Concentrations of ANC at the Basolateral Side (apical ANC 0.20 ×10^−3 mg/mL, without FA-g-CS co-treatment, 4 h): 0.0019 ± 0.0001 c ×10^−3 mg/mL
